Source: patent US5885994A, “Tetrahydroquinoxaline dopamine D4 receptor antagonists” (Warner-Lambert Company, priority 1998, dated 1999)

Target: T1, human DA D4.2 receptor (Homo sapiens, UniProt P21917, DEL265-296)
T1 construct: expressed in transfected cells
T1 sequence (P21917 with tags, fused parts or gaps DEL265-296): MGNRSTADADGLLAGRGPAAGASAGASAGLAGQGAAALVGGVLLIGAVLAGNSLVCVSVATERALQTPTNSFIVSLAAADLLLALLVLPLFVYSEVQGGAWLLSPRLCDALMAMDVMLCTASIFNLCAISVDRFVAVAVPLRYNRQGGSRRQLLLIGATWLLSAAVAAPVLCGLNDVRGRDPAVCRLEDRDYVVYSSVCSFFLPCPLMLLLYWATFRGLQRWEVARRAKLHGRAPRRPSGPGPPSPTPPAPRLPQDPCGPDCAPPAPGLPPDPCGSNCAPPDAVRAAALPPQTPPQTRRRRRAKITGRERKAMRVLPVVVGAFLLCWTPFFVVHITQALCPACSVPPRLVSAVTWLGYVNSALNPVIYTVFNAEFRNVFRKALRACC
Assay: [3H]Thymidine uptake assay (block of quinpirole stimulation in CHO pro-5 cells transfected with human DA D4.2 receptor)
Format: cell-based
Details: human D4.2, quinpirole-stimulated uptake
Description: Compounds were tested for their ability to bind to dopamine (DA) receptors as measured by their inhibition of [^3 H]spiperone binding to the human D2, and D4.2 receptors (Pugsley, et al., 1995). The ability of test compounds to block the stimulation of [^3 H]thymidine uptake in CHO pro-5 cells transfected with human DA D4.2 receptor cDNA caused by the DA agonist quinpirole was employed as an in vitro measure of DA receptor antagonist activity (Pugsley, et al., 1995). The effects of compounds on synthesis rates of rat brain catecholamines were estimated by measuring the accumulation of [3-(3,4-dihydroxyphenyl)-L-alanine (DOPA) after administration of the L-aromatic amino acid decarboxylase inhibitor, NSD 1015 (Pugsley, et al., 1995).
[^3 H]Thymidine Uptake Assay
The effects of test compounds on [^3 H]thymidine uptake were carried out essentially as described by Pugsley, et al., 1995. CHO p-5 cells transfected with human D4.2 cDNA were seeded into 96-well plates at a density of about 5000 cells/well and were grown at 37° C. in a minimum essential medium (aMEM, Gibco) with 10% calf serum for 2 days. The wells were then rinsed three times with serum-free media. Fresh media ([…]) was added along with […] of test compound in water or vehicle alone. Eight wells of each plate received […] of aMEM with 10% fetal calf serum. After culture for 16 to 17 hours, [3H]thymidine ([…]) was added for 4 hours. The cells were trypsinized and harvested onto filter mats with a 96-well Brandel cell harvester. The filters were counted in a Beta-Plate scintillation counter.

IC50: 1.6 nM
SMILES: Cc1ccc(N2CCN(Cc3ccc4c(c3)NCCN4)CC2)cc1C [Example 2, 6-[4-(3,4-Dimethylphenyl)piperazin-1-ylmethyl]-1,2,3,4-tetrahydroquinoxaline]
